# Tests used:
# mice = assay: Acute toxicity in mice; assay type: in vivo
# Solubility = assay type: physicochemical
# Acute toxicity in mice = assay type: in vivo; details: mouse, in vivo
SMILES,LD50 (mice; iv.),LD50 (mice; sc.),Solubility in acetone (Solubility),"Solubility in chloroform, ethyl acetate, diethyl ether, hexane and petroleum ether (Solubility)",Solubility in ethanol (Solubility),Solubility in methanol (Solubility),Solubility in water (Solubility),LD50 (Acute toxicity in mice; iv.),LD50 (Acute toxicity in mice; sc.)
CNCC1CCC(N)C(OC2C(N)CC(OC)C(NC)C2O)O1 (stereo not drawn) [KA-7038 VI],> 300 mg/kg,> 600 mg/kg,slightly soluble,Insoluble,little soluble,Easily soluble,Very readily soluble,–,–
CNC1C(O)CC(N)C(OC2OC(CN)CCC2N)C1O (stereo not drawn) [KA-7038 II],–,–,slightly soluble,Insoluble,little soluble,Easily soluble,Very readily soluble,> 300 mg/kg,> 600 mg/kg
CNCC1CCC(N)C(OC2C(N)CC(OC)C(N(C)C(=O)CN)C2O)O1 (stereo not drawn) [KA-7038 I],–,–,sightly soluble,Insoluble,little soluble,Easily soluble,Very readily soluble,> 100 mg/kg,> 400 mg/kg
CNC1C(O)C(OC2OC(CN)CCC2N)C(N)C(O)C1OC (stereo not drawn) [KA-7038 IV],–,–,slightly soluble,Insoluble,little soluble,Easily soluble,Very readily soluble,> 300 mg/kg,> 600 mg/kg
CNCC1CCC(N)C(OC2C(N)CC(OC)C(NC)C2O)O1 (stereo not drawn) [KA-7038 III],–,–,slightly soluble,Insoluble,little soluble,Easily soluble,Very readily soluble,> 300 mg/kg,> 600 mg/kg
CNC1C(OC)CC(N)C(OC2OC(CN)CCC2N)C1O (stereo not drawn) [KA-7038 V],–,–,slightly soluble,Insoluble,little soluble,Easily soluble,Very readily soluble,> 300 mg/kg,> 600 mg/kg

# From US4329426A, “Process for preparation of antibiotics and biologically pure culture for use therein” (Kowa Company, Ltd., priority 1978, dated 1982)
